Measured values published in the supplement of paper PMC10307832.

What was measured:
Assay in all cases: relative viability (nuclei count vs DMSO), 5 days (fraction); higher = more cells survive
MK-2206 + Trametinib = compound: NC1(c2ccc(-c3nc4ccn5c(=O)[nH]nc5c4cc3-c3ccccc3)cc2)CCC1 [MK-2206] + CC(=O)Nc1cccc(-n2c(=O)n(C3CC3)c(=O)c3c(Nc4ccc(I)cc4F)n(C)c(=O)c(C)c32)c1 [Trametinib] (partner 0.02 µM)
Outline: (§1)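 One day after seeding in 1536-well plates, lung cancer cell lines were dosed by pin tool. Dosing was either single-drug or a fixed anchor-drug dose plus five library-drug doses (not always all listed) in √10 steps. After 5 days, nuclei were stained in one fix-and-stain step and counted on 4× images, and relative viability is the nuclei count of treated wells over that of vehicle wells, given as the median of duplicate plates.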

Pictilisib + OSI-027 = compound: CS(=O)(=O)N1CCN(Cc2cc3nc(-c4cccc5[nH]ncc45)nc(N4CCOCC4)c3s2)CC1 [Pictilisib] + COc1cccc2cc(-c3nc([C@H]4CC[C@H](C(=O)O)CC4)n4ncnc(N)c34)[nH]c12 [OSI-027] (partner 0.5 µM)
Outline: as §1

Pictilisib + Dasatinib = compound: CS(=O)(=O)N1CCN(Cc2cc3nc(-c4cccc5[nH]ncc45)nc(N4CCOCC4)c3s2)CC1 [Pictilisib] + Cc1nc(Nc2ncc(C(=O)Nc3c(C)cccc3Cl)s2)cc(N2CCN(CCO)CC2)n1 [Dasatinib] (partner 0.075 µM)
Outline: as §1

MK-2206 + Phenformin = compound: NC1(c2ccc(-c3nc4ccn5c(=O)[nH]nc5c4cc3-c3ccccc3)cc2)CCC1 [MK-2206] + N=C(N)NC(=N)NCCc1ccccc1 [Phenformin] (partner 250 µM)
Outline: as §1

Pictilisib + Decitabine = compound: CS(=O)(=O)N1CCN(Cc2cc3nc(-c4cccc5[nH]ncc45)nc(N4CCOCC4)c3s2)CC1 [Pictilisib] + Nc1ncn([C@H]2C[C@H](O)[C@@H](CO)O2)c(=O)n1 [Decitabine] (partner 2 µM)
Outline: as §1

Row | Cell Line | relative viability (MK-2206 + Trametinib; first compound 0.01 µM) | relative viability (MK-2206 + Trametinib; first compound 0.3162 µM) | relative viability (MK-2206 + Trametinib; first compound 1 µM) | relative viability (Pictilisib + OSI-027; first compound 0.02 µM) | relative viability (Pictilisib + OSI-027; first compound 0.06325 µM) | relative viability (Pictilisib + OSI-027; first compound 0.6325 µM) | relative viability (Pictilisib + OSI-027; first compound 2 µM) | relative viability (Pictilisib + Dasatinib; first compound 0.02 µM) | relative viability (Pictilisib + Dasatinib; first compound 0.06325 µM) | relative viability (Pictilisib + Dasatinib; first compound 0.6325 µM) | relative viability (Pictilisib + Dasatinib; first compound 2 µM) | relative viability (MK-2206 + Phenformin; first compound 0.01 µM) | relative viability (MK-2206 + Phenformin; first compound 0.03162 µM) | relative viability (MK-2206 + Phenformin; first compound 0.3162 µM) | relative viability (MK-2206 + Phenformin; first compound 1 µM) | relative viability (Pictilisib + Decitabine; first compound 0.02 µM) | relative viability (Pictilisib + Decitabine; first compound 0.06325 µM) | relative viability (Pictilisib + Decitabine; first compound 0.6325 µM) | relative viability (Pictilisib + Decitabine; first compound 2 µM) | relative viability (MK-2206 + Trametinib; first compound 0.03162 µM)
1 | SW 900 | 0.809 | 0.702 | 0.86 | 0.655 | 0.715 | 0.501 | 0.289 | 0.577 | 0.547 | 0.264 | 0.255 | 0.656 | 0.71 | 0.451 | 0.538 | 0.367 | 0.524 | 0.45 | 0.418 | –
2 | PC-3 [JPC-3] | 0.686 | 0.599 | 0.735 | 0.591 | 0.718 | 0.621 | 0.433 | 0.965 | 1.02 | 1.03 | 0.555 | 0.48 | 0.486 | 0.475 | 0.466 | 0.84 | 0.92 | 0.813 | 0.748 | 0.804
3 | EPLC-272H | 0.266 | 0.298 | 0.312 | 0.296 | 0.284 | 0.242 | 0.18 | 0.304 | 0.323 | 0.216 | 0.142 | 0.323 | 0.285 | 0.29 | 0.336 | 0.428 | 0.371 | 0.319 | 0.171 | 0.307
4 | NCI-H1792 | 0.363 | 0.365 | 0.296 | 0.752 | 0.617 | 0.335 | 0.173 | 0.811 | 0.795 | 0.417 | 0.228 | 0.329 | 0.351 | 0.161 | 0.184 | 0.509 | 0.592 | 0.491 | 0.22 | 0.395
5 | NCI-H2085 | 0.527 | 0.292 | 0.36 | 0.706 | 0.802 | 0.303 | 0.284 | 0.241 | 0.22 | 0.198 | 0.18 | 0.713 | 0.834 | 0.681 | 0.59 | 0.521 | 0.631 | 0.511 | 0.369 | 0.52
6 | LK-2 | 0.826 | 0.694 | 0.602 | 0.183 | 0.208 | 0.15 | 0.142 | 0.278 | 0.324 | 0.185 | 0.185 | 0.302 | 0.543 | 0.315 | 0.174 | 0.238 | 0.302 | 0.197 | 0.163 | 0.775
7 | NCI-H1395 | 1.02 | 0.804 | 0.897 | 0.796 | 0.658 | 0.568 | 0.392 | 0.406 | 0.392 | 0.296 | 0.265 | 0.508 | 0.481 | 0.4 | 0.354 | 0.708 | 0.798 | 0.652 | 0.5 | 1.16
8 | ABC-1 | – | – | – | 0.434 | 0.462 | 0.337 | 0.335 | 0.664 | 0.55 | 0.522 | 0.473 | 0.265 | 0.235 | 0.196 | 0.232 | 1.16 | 1.19 | 1.07 | 0.703 | –
9 | RERF-LC-KJ | 0.808 | 0.725 | 0.718 | 0.531 | 0.559 | 0.402 | 0.371 | 0.802 | 0.811 | 0.687 | 0.451 | 0.413 | 0.423 | 0.408 | 0.333 | 0.711 | 0.618 | 0.54 | 0.479 | 0.903
10 | LU99A | 0.524 | 0.473 | 0.553 | 0.286 | 0.262 | 0.263 | 0.214 | 0.514 | 0.567 | 0.281 | 0.204 | 1.01 | 0.874 | 0.803 | 0.903 | 0.969 | 0.919 | 0.901 | 0.441 | 0.537
11 | NCI-H650 | 0.981 | 1.03 | 0.991 | 0.563 | 0.555 | 0.425 | 0.321 | 0.498 | 0.497 | 0.41 | 0.333 | 0.458 | 0.473 | 0.471 | 0.353 | 0.336 | 0.297 | 0.318 | 0.411 | 0.98
12 | NCI-H2347 | 0.325 | 0.284 | 0.263 | 0.458 | 0.213 | 0.286 | 0.217 | 0.321 | 0.297 | 0.337 | 0.215 | 0.443 | 0.345 | 0.51 | 0.224 | 0.663 | 0.658 | 0.579 | 0.502 | 0.262
13 | HARA | 0.63 | 0.677 | 0.788 | 0.477 | 0.507 | 0.202 | 0.133 | 0.256 | 0.246 | 0.163 | 0.142 | 0.432 | 0.577 | 0.386 | 0.415 | 0.605 | 0.64 | 0.453 | 0.307 | 0.553
14 | NCI-H2228 | 0.375 | 0.284 | 0.448 | 0.587 | 0.431 | 0.283 | 0.155 | 0.654 | 0.433 | 0.317 | 0.167 | 0.332 | 0.326 | 0.214 | 0.219 | – | – | – | – | 0.433
